Read-outs that look alike come from different tables or passages of the source.
Experiments:
[1] = test system: L. amazonensis promastigotes (Strain MHOM/BR/PH8); experiment: Anti-promastigote effect, Neubauer chamber counting; format: cell-based, Leishmania amazonensis; details: 72 h incubation, read-out: L. amazonensis IC50PRO
Protocol: The promastigote cultures of L. infantum (Strain MHOM/BR/70/BH46) and L. amazonensis (Strain MHOM/BR/PH8) were kept in Schneider medium (Sigma-Aldrich, St. Louis, MO, USA) supplemented with 20% fetal bovine serum (FBS) and 1% streptomycin/penicillin in a B.O.D. incubator (J. Prolab, model JP. 100 LBCM/CPAM) at 26 °C. The promastigote strains were used in the exponential growth phase in all stages for experimental purposes.
The Neubauer chamber method was used to assess the inhibitory concentrations of the synthesized spiro-acridines capable of eliminating 50% of the promastigotes in cultures of L. amazonensis and L. infantum (IC50) strains. Promastigotes from both species were collected, counted, and diluted in Schneider’s medium (Sigma-Aldrich, St. Louis, MO, USA) supplemented with 20% fetal bovine serum (FBS) at a final concentration of 1 × 10^6 cells/mL. The evaluated promastigotes were then exposed to different concentrations of the tested compounds (10, 5, 2.5, 1.25, and 0.625 μg/mL). The positive control used the commercial drug Amphotericin B®, while the negative control consisted of promastigotes incubated in Schneider’s medium alone. After 72 h of incubation at 25 °C, culture growth was observed by counting the viable cells using a Neubauer chamber and calculated using the following Equation (1): No. Leishmania/mL = No. of cells counted × No. of Neubauer chamber(1) quadrants × the dilution used × 10^4 (Neubauer chamber correction factor)
The concentration parameter that inhibits 50% of parasite growth (IC50) was used to estimate the growth inhibition of the promastigote species of Leishmania sp. Thus, IC50 was determined by linear regression analysis with SPSS 8.0 software for Windows. Each test was performed in two independent experiments, with different cultures and in technical triplicate.

[2] = test system: L. amazonensis axenic amastigotes; experiment: Anti-amastigote effect on axenic amastigotes, MTT; format: cell-based, Leishmania amazonensis; details: L. amazonensis axenic amastigotes, 24 h, MTT
Protocol: The amastigote forms of L. amazonensis were maintained under cryopreservation until they were transferred to an NNN medium (Novy–MacNeal–Nicolle) and incubated at 26 °C until the parasites reached the log growth phase. Subsequently, the suspension was transferred to Schneider culture medium (Sigma-Aldrich, St. Louis, MO, USA), supplemented with 20% inactivated fetal bovine serum and 0.2% gentamicin sulfate at 26 °C, causing the parasites to return to the log growth phase. The cultures were then maintained at 37 °C, producing a growth curve and the formation of the axenic amastigote strains.
The concentrations of the compounds AMTAC-02 and ACMD-03 capable of eliminating 50% of the cells in the cultures of L. amazonensis amastigotes (IC50) were determined using the MTT [3-(4,5-dimethylthiazol-2-yl)-2,5-diphenyltetrazolium bromide] (Sigma-Aldrich) reagent. In a 96-well plate, the assay was initiated by diluting both compounds to concentrations of 2, 4, 8, 16, and 32 μg/mL and 2.0 × 10^5 axenic amastigotes per well. The plates were incubated at 37 °C for 24 h. Then, 10 μL of MTT was added per well, and the cultures were re-incubated for 4 h. Subsequently, 50 μL of dimethyl sulfoxide was added to each well to solubilize the formazan crystals formed. The absorbances were measured using a SpectraMAX GeminiXS plate spectrophotometer (Molecular Devices LLC) at a wavelength of 570 nm. The negative control consisted of untreated cells, while the positive control was assessed by incubating the axenic amastigotes with the reference drug Amphotericin B® [13].

[3] = test system: human red blood peripheral cells (O+); experiment: Hemocompatibility (hemolysis) in red blood cells; format: cell-based; details: 1 h at 37 °C
Protocol: The hemocompatibility of the spiro-acridine derivatives was determined using human red blood peripheral cells (O+) from healthy adults. The erythrocytes were diluted in phosphate-buffered saline (PBS) to a concentration of 5% in an 80 µL suspension and subsequently incubated with 20 µL of different concentrations of spiro-acridine derivatives and Amphotericin B® (400, 200, 100, 50, 25, 12,5, 6,25 and 3,12 μg/mL). Afterward, the samples were incubated for 1 h at 37 °C in a B.O.D incubator, and the reaction was stopped by adding 200 μL of PBS (1.5 mM KH2PO4, 8.1 mM Na2HPO4, 136.9 mM NaCl, and 2.6 mM KCl, pH 7.2). The samples were centrifuged at 2000 rpm for 10 min, at room temperature. The supernatants were collected and subjected to spectrophotometry using a spectrophotometer (model Biosystems ELx800, Curitiba, PR, Brazil) at 540 nm. The hemolysis percentage was determined as [(Abssam − Abscon)/(Abstot − Abscon) × 100], where Abssam refers to the absorbance of the sample, Abscon to the absorbance of the blank control (without compounds), and Abstot to the absorbance of total hemolysis (obtained by replacing the sample solution with an equal volume of Milli-Q water). The results were expressed as average hemolytic concentration (HC50), considering the positive control as 100% hemolysis.

[4] = test system: J774 macrophages infected with L. amazonensis amastigotes; experiment: Cytokine profile by cytometry bead assay (CBA); format: cell-based; details: 24 h; for IL-6 expression: 8 µg/mL, versus untreated infected macrophages; for modulation of the IL-2 response: basal or infected macrophages, 2, 4 and 8 µg/mL; for IL-4 expression / IL-10 expression / TNF-α expression: infected macrophages, 2, 4 and 8 µg/mL; for TNF-α expression: versus untreated infected
Protocol: The assessment of the influence of spiro-acridine derivatives on the cytokine profile of immunological responses was carried out by the quantification of the cytokines IL-2, IL-4, IL-6, IL-10, IL-17A, INF-γ, and TNF-α in supernatants of cell cultures of J774 macrophages infected with L. amazonensis amastigotes through cytometry bead assay (CBA), according to the manufacturer’s instructions (BD Bioscience, Franklin Lakes, NJ, USA). The cells were adhered to a plate, infected with amastigotes of L. amazonensis, and treated with the spiro-acridines under analysis in the following concentrations: 2, 4, and 8 μg/mL. After the 24-h treatment period, 50 μL of the supernatant from each well was transferred to a conical tube, while 50 μL of the capture bead mixture and 50 μL of the detection reagent were added. The samples were incubated for 2 h at room temperature and protected from light. After incubation, 500 μL of washing buffer was added to each tube, followed by centrifugation for 5 min. The supernatant was discarded, and 300 μL of washing buffer was added. A calibration curve containing the following concentrations of each cytokine was added to the experiment: 0, 20, 40, 80, 156, 312.5, 625, 1250, 2500, and 5000 pg/mL. Uninfected and untreated macrophages were used as the negative control, while the untreated macrophages infected with L. amazonensis were used as the positive control. The fluorescence intensity in each sample was captured on the BD LRS II FORTESSA flow cytometer using the DIVA program version 7 (BD Bioscience), and the fluorescence data was processed using the FCAP array program version 3 (BD Bioscience). The experiments were performed in triplicate.

IC50 ([1]; Leishmania amazonensis) | IC50 ([2]; Leishmania amazonensis) | Structure (SMILES) | IC50 [1] | IC50 [2] | HC50 (concentration capable of promoting 50% hemolysis) [3] | IL-6 expression [4] | modulation of the IL-2 response [4] | IL-4 expression [4] | IL-10 expression [4] | TNF-α expression [4] | IL-17A level (Th17 response) ([4]; versus basal and parasite-infected macrophages)
 |  | N#CC1=CC2(c3ccccc3Nc3ccccc32)N(c2ccc(Cl)cc2)C1=O [ACMD-03, (E)1′-(4-chlorophenyl)-5′-oxo-1′, 5′-dihydro-10H-spiro{acridine-9,2′-pyrrole]-4′-carbonitrile] | 11 µM | 10.5 µM | >400 µM | significant decrease in IL-6 expression | did not demonstrate a modulation of the IL-2 response | Neither of the two molecules significantly influenced IL-4 expression | significantly increased the expression of IL-10 at concentrations of 4 and 8 µg/mL | significant reduction in TNF-α expression | significant increase in this interleukin at a concentration of 4 µg/mL
0.73 µM | 10.5 to 13.5 µM | COc1ccc(/C=N/N2C(=O)C(C#N)=CC23c2ccccc2Nc2ccccc23)cc1 [AMTAC-02, (E)-1′-((4-methoxybenzylidene)amino)-5′-oxo-1′,5′-dihydro-10H-spiro[acridine-9,2′-pyrrole]-4′-carbonitrile] |  | 13.5 µM | >400 µM | significant decrease in IL-6 expression | did not demonstrate a modulation of the IL-2 response | Neither of the two molecules significantly influenced IL-4 expression | no significant increase in IL-10 expression | significant reduction in TNF-α expression | 
